Reference: ChEMBL document CHEMBL4196211, “In Vitro Mechanistic Study of the Anti-inflammatory Activity of a Quinoline Isolated from Spondias pinnata Bark” (J Nat Prod, 2018)
One block for each molecule: values may come before it. Activity calls are given as the source filed them. No cut-off for these calls is given here.

Key:
[1] = test system: RAW264.7; assay: Antiinflammatory activity against mouse RAW264.7 cells assessed as inhibition of LPS-induced nitrite production at 20 uM pretreated for 6 hrs followed by LPS stimulation measured after 24 hrs by […]; format: functional, cell-based
[2] = test system: RAW264.7; assay: Antiinflammatory activity against mouse RAW264.7 cells assessed as inhibition of LPS-induced TNFalpha production at 20 uM pretreated for 6 hrs followed by LPS stimulation measured after 24 hrs by ELISA; format: functional, cell-based
[3] = test system: RAW264.7; assay: Antiinflammatory activity against mouse RAW264.7 cells assessed as inhibition of LPS-induced IL-6 production at 20 uM pretreated for 6 hrs followed by LPS stimulation measured after 24 hrs by ELISA; format: functional, cell-based
[4] = test system: RAW264.7; assay: Antiinflammatory activity against mouse RAW264.7 cells assessed as inhibition of LPS-induced IL-1beta production at 20 uM pretreated for 6 hrs followed by LPS stimulation measured after 24 hrs by ELISA; format: functional, cell-based
[5] = test system: RAW264.7; assay: Cytotoxicity against mouse RAW264.7 cells assessed as reduction in cell viability at 50 to 100 uM after 48 hrs by WST-1 assay; format: cell-based; conditions: raw264.7, 48 h
[6] = test system: RAW264.7; assay: Antiinflammatory activity against mouse RAW264.7 cells assessed as inhibition of LPS-induced nitrite production at 100 uM pretreated for 6 hrs followed by LPS stimulation measured after 24 hrs by […]; format: functional, cell-based
[7] = test system: RAW264.7; assay: Antiinflammatory activity against mouse RAW264.7 cells assessed as inhibition of LPS-induced TNFalpha production at 100 uM pretreated for 6 hrs followed by LPS stimulation measured after 24 hrs by ELISA; format: functional, cell-based
[8] = test system: RAW264.7; assay: Antiinflammatory activity against mouse RAW264.7 cells assessed as inhibition of LPS-induced IL-6 production at 50 to 100 uM pretreated for 6 hrs followed by LPS stimulation measured after 24 hrs by ELISA; format: functional, cell-based
[9] = test system: RAW264.7; assay: Antiinflammatory activity against mouse RAW264.7 cells assessed as inhibition of LPS-induced IL-1beta production at 50 to 100 uM pretreated for 6 hrs followed by LPS stimulation measured after 24 hrs by ELISA; format: functional, cell-based
[10] = test system: RAW264.7; assay: Antiinflammatory activity against mouse RAW264.7 cells assessed as inhibition of LPS-induced intracellular ROS production at 50 to 100 uM pretreated for 12 hrs followed by LPS stimulation measured after 24 hrs by DCF-DA probe based flow cytometry; format: functional, cell-based
[11] = test system: RAW264.7; assay: Inhibition of NF-kappaB in mouse RAW264.7 cells assessed as reduction in LPS-induced iNOS expression level pretreated for 6 hrs followed by LPS stimulation measured after 24 hrs by Western blot analysis; format: cell-based
[12] = test system: RAW264.7; assay: Inhibition of NF-kappaB in mouse RAW264.7 cells assessed as LPS-induced iNOS expression level at 50 uM pretreated for 6 hrs followed by LPS stimulation measured after 24 hrs by Western blot analysis (reference value: 5.69); format: cell-based
[13] = test system: RAW264.7; assay: Inhibition of NF-kappaB in mouse RAW264.7 cells assessed as LPS-induced iNOS expression level at 70 uM pretreated for 6 hrs followed by LPS stimulation measured after 24 hrs by Western blot analysis (reference value: 5.69); format: cell-based
[14] = test system: RAW264.7; assay: Inhibition of NF-kappaB in mouse RAW264.7 cells assessed as LPS-induced iNOS expression level at 100 uM pretreated for 6 hrs followed by LPS stimulation measured after 24 hrs by Western blot analysis (reference value: 5.69); format: cell-based
[15] = test system: RAW264.7; assay: Inhibition of NF-kappaB in mouse RAW264.7 cells assessed as LPS-induced COX-2 expression level at 50 uM pretreated for 6 hrs followed by LPS stimulation measured after 24 hrs by Western blot analysis (reference value: 2.02); format: cell-based
[16] = test system: RAW264.7; assay: Inhibition of NF-kappaB in mouse RAW264.7 cells assessed as LPS-induced COX-2 expression level at 75 uM pretreated for 6 hrs followed by LPS stimulation measured after 24 hrs by Western blot analysis (reference value: 2.02); format: cell-based
[17] = test system: RAW264.7; assay: Inhibition of NF-kappaB in mouse RAW264.7 cells assessed as LPS-induced COX-2 expression level at 100 uM pretreated for 6 hrs followed by LPS stimulation measured after 24 hrs by Western blot analysis (reference value: 2.02); format: cell-based
[18] = test system: RAW264.7; assay: Effect on beta-actin expression level in LPS-induced mouse RAW264.7 cells at 50 uM pretreated for 6 hrs followed by LPS stimulation measured after 24 hrs by Western blot analysis (reference value: 0.95); format: ADME, cell-based; conditions: raw264.7, 24 h
[19] = test system: RAW264.7; assay: Effect on beta-actin expression level in LPS-induced mouse RAW264.7 cells at 75 uM pretreated for 6 hrs followed by LPS stimulation measured after 24 hrs by Western blot analysis (reference value: 0.95); format: ADME, cell-based; conditions: raw264.7, 24 h
[20] = test system: RAW264.7; assay: Effect on beta-actin expression level in LPS-induced mouse RAW264.7 cells at 100 uM pretreated for 6 hrs followed by LPS stimulation measured after 24 hrs by Western blot analysis (reference value: 0.95); format: ADME, cell-based; conditions: raw264.7, 24 h
[21] = test system: RAW264.7; assay: Inhibition of NF-kappaB in mouse RAW264.7 cells assessed as reduction in LPS-induced iNOS mRNA level at 50 to 100 uM by qRT-PCR analysis; format: cell-based
[22] = test system: RAW264.7; assay: Inhibition of NF-kappaB in mouse RAW264.7 cells assessed as reduction in LPS-induced COX-2 mRNA level at 50 to 100 uM by qRT-PCR analysis; format: cell-based
[23] = test system: RAW264.7; assay: Inhibition of NF-kappaB in mouse RAW264.7 cells assessed as reduction in LPS-induced TNFalpha mRNA level at 50 to 100 uM by qRT-PCR analysis; format: cell-based
[24] = test system: RAW264.7; assay: Inhibition of NF-kappaB in mouse RAW264.7 cells assessed as reduction in LPS-induced IL-1beta mRNA level at 50 to 100 uM by qRT-PCR analysis; format: cell-based
[25] = test system: RAW264.7; assay: Inhibition of NF-kappaB in mouse RAW264.7 cells assessed as reduction in LPS-induced IL-6 mRNA level at 50 to 100 uM by qRT-PCR analysis; format: cell-based
[26] = test system: RAW264.7; assay: Inhibition of NF-kappaB nuclear localization in LPS-induced mouse RAW264.7 cells at 50 to 100 uM pretreated for 6 hrs followed by LPS stimulation measured after 2 hrs by DAPI/FITC staining based laser scanning confocal microscopy; format: cell-based
[27] = test system: RAW264.7; assay: Effect on LPS-induced I-kappaB level in mouse RAW264.7 cells at 50 uM pretreated for 6 hrs followed by LPS stimulation measured after 2 hrs by Western blot analysis (reference value: 0.44); format: cell-based
[28] = test system: RAW264.7; assay: Effect on LPS-induced I-kappaB level in mouse RAW264.7 cells at 75 uM pretreated for 6 hrs followed by LPS stimulation measured after 2 hrs by Western blot analysis (reference value: 0.44); format: cell-based
[29] = test system: RAW264.7; assay: Effect on LPS-induced I-kappaB level in mouse RAW264.7 cells at 100 uM pretreated for 6 hrs followed by LPS stimulation measured after 2 hrs by Western blot analysis (reference value: 0.44); format: cell-based
[30] = species on record: Mus musculus; assay: Effect on LPS-induced I-kappaB phosphorylation at 50 uM pretreated for 6 hrs followed by LPS stimulation measured after 2 hrs by Western blot analysis (reference value: 2.22)
[31] = species on record: Mus musculus; assay: Effect on LPS-induced I-kappaB phosphorylation at 75 uM pretreated for 6 hrs followed by LPS stimulation measured after 2 hrs by Western blot analysis (reference value: 2.22)
[32] = species on record: Mus musculus; assay: Effect on LPS-induced I-kappaB phosphorylation at 100 uM pretreated for 6 hrs followed by LPS stimulation measured after 2 hrs by Western blot analysis (reference value: 2.22)
[33] = test system: RAW264.7; assay: Inhibition of NF-kappaB in mouse RAW264.7 cells assessed as LPS-induced cytosolic NF-kappaB level at 50 uM pretreated for 6 hrs followed by LPS stimulation measured after 2 hrs by Western blot analysis (reference value: 0.13); format: cell-based
[34] = test system: RAW264.7; assay: Inhibition of NF-kappaB in mouse RAW264.7 cells assessed as LPS-induced cytosolic NF-kappaB level at 75 uM pretreated for 6 hrs followed by LPS stimulation measured after 2 hrs by Western blot analysis (reference value: 0.13); format: cell-based
[35] = test system: RAW264.7; assay: Inhibition of NF-kappaB in mouse RAW264.7 cells assessed as LPS-induced cytosolic NF-kappaB level at 100 uM pretreated for 6 hrs followed by LPS stimulation measured after 2 hrs by Western blot analysis (reference value: 0.13); format: cell-based
[36] = test system: RAW264.7; assay: Effect on beta-actin expression level in LPS-induced mouse RAW264.7 cells at 50 uM pretreated for 6 hrs followed by LPS stimulation measured after 2 hrs by Western blot analysis (reference value: 0.99); format: ADME, cell-based; conditions: raw264.7, 2 h
[37] = test system: RAW264.7; assay: Effect on beta-actin expression level in LPS-induced mouse RAW264.7 cells at 75 uM pretreated for 6 hrs followed by LPS stimulation measured after 2 hrs by Western blot analysis (reference value: 0.99); format: ADME, cell-based; conditions: raw264.7, 2 h
[38] = test system: RAW264.7; assay: Effect on beta-actin expression level in LPS-induced mouse RAW264.7 cells at 100 uM pretreated for 6 hrs followed by LPS stimulation measured after 2 hrs by Western blot analysis (reference value: 0.99); format: ADME, cell-based; conditions: raw264.7, 2 h
[39] = test system: RAW264.7; assay: Inhibition of NF-kappaB in mouse RAW264.7 cells assessed as LPS-induced nuclear NF-kappaB level at 50 uM pretreated for 6 hrs followed by LPS stimulation measured after 2 hrs by Western blot analysis (reference value: 6.77); format: cell-based
[40] = test system: RAW264.7; assay: Inhibition of NF-kappaB in mouse RAW264.7 cells assessed as LPS-induced nuclear NF-kappaB level at 75 uM pretreated for 6 hrs followed by LPS stimulation measured after 2 hrs by Western blot analysis (reference value: 6.77); format: cell-based
[41] = test system: RAW264.7; assay: Inhibition of NF-kappaB in mouse RAW264.7 cells assessed as LPS-induced nuclear NF-kappaB level at 100 uM pretreated for 6 hrs followed by LPS stimulation measured after 2 hrs by Western blot analysis (reference value: 6.77); format: cell-based
[42] = test system: RAW264.7; assay: Effect on tubulin expression level in LPS-induced mouse RAW264.7 cells at 50 uM pretreated for 6 hrs followed by LPS stimulation measured after 2 hrs by Western blot analysis (reference value: 1.02); format: ADME, cell-based; conditions: raw264.7, 2 h
[43] = test system: RAW264.7; assay: Effect on tubulin expression level in LPS-induced mouse RAW264.7 cells at 75 uM pretreated for 6 hrs followed by LPS stimulation measured after 2 hrs by Western blot analysis (reference value: 1.02); format: ADME, cell-based; conditions: raw264.7, 2 h
[44] = test system: RAW264.7; assay: Effect on tubulin expression level in LPS-induced mouse RAW264.7 cells at 100 uM pretreated for 6 hrs followed by LPS stimulation measured after 2 hrs by Western blot analysis (reference value: 1.02); format: ADME, cell-based; conditions: raw264.7, 2 h
[45] = test system: RAW264.7; assay: Inhibition of LPS-induced I-kappaB phosphorylation in mouse RAW264.7 cells pretreated for 6 hrs followed by LPS stimulation measured after 2 hrs by Western blot analysis; format: cell-based

Compound: C[C@@H]1C[C@H]2[C@@H]3CCC4=CC(=O)C=C[C@]4(C)[C@@]3(F)[C@@H](O)C[C@]2(C)[C@@]1(O)C(=O)CO
- inhibition [1]: Active
- inhibition [2]: Active
- inhibition [3]: Active
- inhibition [4]: Active

- fold change (FC) [18]: 0.95
- fold change (FC) [19]: 1
- fold change (FC) [20]: 0.96
- fold change (FC) [30]: 1.86
- fold change (FC) [31]: 1.11
- fold change (FC) [32]: 1.05
- fold change (FC) [36]: 0.94
- fold change (FC) [37]: 0.96
- fold change (FC) [38]: 1
- fold change (FC) [42]: 0.93
- fold change (FC) [43]: 0.96
- fold change (FC) [44]: 1.01
Compound: COc1cc2ccc(=O)[nH]c2cc1O
- Activity [5]: Non-Toxic
- inhibition [6]: Active
- inhibition [7]: Active
- inhibition [8]: Active
- inhibition [9]: Active
- inhibition [10]: Active
- inhibition [11]: Dose-dependent effect
- fold change (FC) [12]: 3.4
- fold change (FC) [13]: 1.98
- fold change (FC) [14]: 1.04
- fold change (FC) [15]: 1.72
- fold change (FC) [16]: 1.29
- fold change (FC) [17]: 1.02
- inhibition [21]: Active
- inhibition [22]: Active
- inhibition [23]: Active
- inhibition [24]: Active
- inhibition [25]: Active
- inhibition [26]: Active
- fold change (FC) [27]: 0.64
- fold change (FC) [28]: 0.85
- fold change (FC) [29]: 0.99
- fold change (FC) [33]: 0.3
- fold change (FC) [34]: 0.91
- fold change (FC) [35]: 0.97
- fold change (FC) [39]: 5.25
- fold change (FC) [40]: 3.89
- fold change (FC) [41]: 1.56
- inhibition [45]: Dose-dependent effect
